This note sets out measurements from patent US20090191173A1, “Induction Of Neurogenesis And Stem Cell Therapy In Combination With Copolymer 1” (priority 2004, published 2009).

For one test, the system named is aNPCs. Kind of test: Neuronal differentiation of aNPCs with CD4+ T cells, T cell-conditioned medium or cytokines. It counts as cell-based, mouse. The note with it: 5 days in culture with cytokine, concentrations as low as 1 ng/ml. How it is done: (xvii) Co-culturing of neural progenitor cells and T cells. CD4+ T cells were purified from lymph nodes of 8-week-old C57B16/J mice as previously described (Kipnis et al., 2004). T cells were activated in RPMI medium supplemented with L-glutamine (2 mM), 2-mercaptoethanol (5×10^−5 M), sodium pyruvate (1 mM), penicillin (100 IU/ml), streptomycin (100 μg/ml), nonessential amino acids (1 ml/100 ml), and autologous serum 2% (v/v) in the presence of mouse recombinant IL-2 (mrIL-2; 5 ng/ml) and soluble anti-CD28 and anti-CD3. antibodies (1 ng/ml). T cells were co-cultured (5×10^4 cells/well) with aNPCs (5×10^4 cells/well) for 5 d on cover slips coated with Matrigel (BD Biosciences) in 24-well plates. The cultures were then fixed with 2.5% paraformaldehyde in PBS for 30 min at room temperature and stained for neuronal markers.
We therefore sought to determine whether direct interaction between aNPCs and T cells would also result in an altered pattern of aNPC differentiation. To address this question, we activated CD4+ T cells in vitro by a cognate protocol (with anti-CD3 antibodies, anti-CD28 antibodies, and IL-2) for 24 h and then allowed their activation to continue in co-cultures with aNPCs in a transwell culture system. […] After 5 days in culture the aNPCs in the lower chamber were fixed and analyzed for the appearance of newly formed neurons. […]

For the next test, the system named is microglia. In words: TNF-α and IGF-I expression in treated microglia (RT-PCR, immunocytochemistry). It is filed as cell-based, mouse. The following applies: IFN-γ 20 ng/ml. An excerpt:
(vi) Immunocytochemistry. Cover slips from co-cultures of NPCs and mouse microglia were washed with PBS, fixed as described above, treated with a permeabilization/blocking solution containing 10% FCS, 2% bovine serum albumin, 1% glycine, and 0.1% Triton X-100 (Sigma-Aldrich, Rehovot) and stained with a combination of the mouse or rabbit anti-tubulin β-III-isoform C-terminus antibodies (β-III-tubulin; 1:500), rabbit anti-NG2 chondroitin sulfate proteoglycan (NG2; 1:500), mouse anti-RIP (RIP; 1:2000), mouse anti-galactocerebroside (GalC; 1:250), mouse anti-glutamic acid decarboxylase 67 (GAD; 1:1000), mouse anti-nestin (Nestin; 1:1000), rat anti-myelin basic protein (MBP; 1:300) (all from Chemicon, Temecula, Calif.), goat anti-double cortin (DCX; 1:400, Santa Cruz Biotechnology, Santa Cruz, Calif.) and mouse anti-glial fibrillary acidic protein (GFAP; 1:100, Sigma-Aldrich, St. Louis). […] Expression of IGF-1 was detected by goat anti-IGF-1 (1:20, R&D Systems). […]
We assayed the expression of specific mRNAs using semi-quantitative reverse transcription PCR (RT-PCR) with selected gene-specific primer pairs, using OLIGO v6.4 (Molecular Biology Insights, Cascade, Colo.).
The RT-PCR reactions were carried out using 1 μg of cDNA, […] of each primer, and ReadyMix PCR Master Mix (ABgene, Epsom, UK) in 30-μl reactions. […] Signals were quantified using a Gel-Pro analyzer 3.1 (Media Cybernetics).

As for IFN-γ: recombinant interferon-γ, the “β-III-tubulin expression in aNPCs” value in the test with aNPCs was “could induce an increase in β-III-tubulin expression”. Further, in the test on microglia, the “IGF-I mRNA in microglia as a function of time” value is listed as “down-regulation of IGF-I” and the “TNF-α production by microglia as a function of time” value is listed as “transient increase in TNF-α production”.
